Laboratory results from patent US20250177423A1, “PHOTORESPONSIVE PEPTIDE DELIVERY SYSTEM AND METHOD OF USING THE SAME” (THE UNIVERSITY OF HONG KONG, priority 2023, published 2025).

Assays:
laser induced CNV [1] = assay: Laser induced CNV mouse model, imageological examination (OCTA, FFA, OCT); format: in vivo, C57BL/6 mice; details: i.v. day 3 and 5, AS16 equivalent 2 mg/kg, day 7
Protocol: Four laser spots were produced on the fundus of mice by 810 nm laser to induce CNV. Specifically, C57BL/6 mice (6-8 w) were anesthetized with 1% pentobarbital sodium (40 mg/kg). Then their pupils were dilated with 0.5% tropicamide eyedrops and received local anesthesia by tetracaine eye drops, followed by carboxymethylcellulose sodium eye drops for prevention of ocular surface dehydration. Each mouse's eyes were applied four laser (six in case of western blot analysis) burns (810 nm wavelength, 140 mW of power, 75 μm of spot size, 75 ms of duration) with OcuLight Infrared Laser System at almost equal distance to the optic nerve head. Afterwards, the mice received chloramphenicol eye drops for infection prevention and rested on heating pad until consciousness. […] On day 3 and day 5 after laser photocoagulation, 2 mg/kg AS16 peptide and quantity equivalent nanoLAMPs were administered intravenously through tail veins. […] On day 7 post CNV induction, FFA (fluorescence fundus angiography) and OCTA (optical coherence tomography angiography) images of each group was collected, and the mice were then euthanized. […] Only the scan that passed through the center of the lesion was used to measure the thickness and length of the CNV lesion, which was analyzed and calculated by using ImageJ software and GraphPad Prism. […]

HUVEC cells [2] = assay: Migration assay (trans-well); format: cell-based, human; details: without light irradiation; AS16 equivalent 5 μM; 24 h
Protocol: 200 μL serum-free medium containing 2*10^4 HUVEC cells were seeded in the upper chamber of the trans-well and 600 μL full medium was loaded in the lower chamber. Different drugs were added to the upper chamber. The grouping and treatment method as well as the calculation was consistent with above.
(§1) To verify the anti-angiogenic property of nanoLAMPs in vitro, tube formation assay, migration assay, and wound healing assay were also conducted on HUVECs and the concentration of each group was set equal to nanoLAMPs containing 5 μM AS16 peptide.

laser induced CNV [3] = assay: Laser induced CNV mouse model, isolated tissue (choroidal flat mounts CD31/Ki-67, H&E); format: in vivo, C57BL/6 mice; details: without light irradiation; systemic administration
Protocol: Four laser spots were produced on the fundus of mice by 810 nm laser to induce CNV. Specifically, C57BL/6 mice (6-8 w) were anesthetized with 1% pentobarbital sodium (40 mg/kg). Then their pupils were dilated with 0.5% tropicamide eyedrops and received local anesthesia by tetracaine eye drops, followed by carboxymethylcellulose sodium eye drops for prevention of ocular surface dehydration. Each mouse's eyes were applied four laser (six in case of western blot analysis) burns (810 nm wavelength, 140 mW of power, 75 μm of spot size, 75 ms of duration) with OcuLight Infrared Laser System at almost equal distance to the optic nerve head. Afterwards, the mice received chloramphenicol eye drops for infection prevention and rested on heating pad until consciousness. […] On day 3 and day 5 after laser photocoagulation, 2 mg/kg AS16 peptide and quantity equivalent nanoLAMPs were administered intravenously through tail veins. […] On day 7 post CNV induction, FFA (fluorescence fundus angiography) and OCTA (optical coherence tomography angiography) images of each group was collected, and the mice were then euthanized. […] Flat-mounted RPE-choroid slides were prepared by making 4 cuts from margin to the optic nerve, and the fluorescence images were acquired by confocal microscopy (LMS980 Carl Zeiss). The CNV lesion area was quantitatively analyzed by ImageJ software. […]

HUVEC cells [4] = assay: Wound healing assay; format: cell-based, human; details: without light irradiation; AS16 5 μM
Protocol: 5*10^5 HUVEC cells were seeded in the 24-well plates and incubated until they reached 90% confluence. Afterwards, a scratch crossing each well was conducted by 200 μL pipette head. The cells were then be washed with PBS for 2 times to remove the flouting cells and incubated with 1 ml DMEM medium with 5% FBS. The grouping and treatment method was consistent with above. The data of each group was measured and analyzed by Image J and GraphPad Prism, respectively.
as §1

[5] = tested on: IL-2 and TNF-α gene expression in Jurkat T cells; assay: RT-qPCR of cytokine gene expression in Jurkat T cells co-cultured with MDA-MB-231 cells (PD-L1 blockade); format: cell-based; details: Jurkat T cells after co-culture with MDA-MB-231 cells; FM12 released from cFM12 nanoparticles; vs PBS control
Description: FIGS. 13A-F. BODIPY-caged FM12 peptide (cFM12) nanoparticles for photo-triggered PD-L1 blockade. […] (E) Size distribution of nanoparticles. (F) Schematic diagram of cFM12 nanoparticles. (*: p<0.05; **: p<0.01; ***: p<0.001). The data are presented as mean±SEM.
To further explore whether the BODIPY photocage can be utilized to deliver other hydrophilic peptides, a peptide inhibitor (FPNWSLRPMNQM, SEQ ID NO: 2, FM12) targeting programmed death ligand 1 (PD-L1) was conjugated with BODIPY at N-terminus to synthesize BODIPY-caged FM12 (cFM12). The conjugate could also form stable polymeric nanoparticles with the help of PEG3.4K-PLA5K. […] For nanoparticle preparation, in brief, 2 μL of 10 mg/mL cFM12 was mixed with 2 μL of 100 mg/mL PEG3.4K-PLA5K in DMSO solution. […] As shown in FIGS. 13e and 13f, the fabricated nanoparticles had well-dispersed size distribution with diameter around 122 nm and PDI around 0.2.

Molecule: COc1ccc(C=CC2=[N+]3C(=C(CO)c4c(C)cc(C=Cc5ccc(OC)cc5)n4[B-]3(C)C)C(C)=C2)cc1 [BODIPY, (3,7-bis((E)-4-methoxystyryl)-1,5,5,9-tetramethyl-5H-4λ4,5λ4-dipyrrolo[1,2-c:2′,1′-f][1,3,2]diazaborinin-10-yl)methanol]
- CNV area by OCTA (laser induced CNV [1]; with light irradiation (656 nm, 50mw/cm^2, 5 min)): negligible effect

Molecule: ATWLPPRAANLLMAAS [AS16 peptide]
- HUVEC migration (HUVEC cells [2]): least migrated HUVECs
- therapeutic effect compared with control group, tests in vivo (laser induced CNV [3]): negligible therapeutic effect
- CNV area by OCTA (laser induced CNV [1]; without light exposure): negligible effect
- wound healing (recovery of scratches) (HUVEC cells [4]): significant compromised recovery of generated scratches

Molecule: FPNWSLRPMNQM [FM12 peptide]
- gene expression level of IL-2 [5]: promote the gene expression level
- gene expression level of TNF-α [5]: promote the gene expression level
